Reference: publication PMC7211202 (Investigational New Drugs, 2019)

Test: Patient incidence of adverse events (CTCAE version 4.0)
Type: in vivo
Details: dose escalation
Text: Each patient was monitored for 21 days for the occurrence of dose-limiting toxicities (DLTs), defined as febrile neutropenia, neutropenic infection, grade 4 neutropenia lasting >7 days, grade ≥ 3 thrombocytopenia lasting >7 days (solid tumors only), grade 3 thrombocytopenia with grade ≥ 2 bleeding (solid tumors only), grade 3 or 4 thrombocytopenia with grade > 1 bleeding (multiple myeloma only), grade 4 thrombocytopenia (solid tumors only), or grade 4 thrombocytopenia lasting >14 days (multiple myeloma only), or as grade ≥ 3 nausea, vomiting, or diarrhea after support; grade 3 fatigue lasting >7 days; any other grade ≥ 3 adverse event (AE); grade ≥ 3 kidney injury (multiple myeloma only), or treatment-related AEs not returning to grade ≤ 1 (solid tumors only) per Common Terminology Criteria for Adverse Events (CTCAE), version 4.0. The MTD was defined as the maximum dose, at which the probability of a DLT was ≤25% in Part 1A and ≤ 33% in Parts 1B and 1C. Treatment continued until disease progression, intolerable toxicity, or withdrawal of consent.
AEs were recorded for all enrolled patients.

SMILES: CC(C)[C@@H](CS(=O)(=O)C(C)C)N1C(=O)[C@@](C)(CC(=O)O)C[C@H](c2cccc(Cl)c2)[C@H]1c1ccc(Cl)cc1 [AMG 232]
- Treatment-related serious AE: Dehydration (grade 2) (30 mg (n = 3)): 0 n (%)
- Treatment-related serious AE: Diarrhea (30 mg (n = 3)): 0 n (%)
- Treatment-related serious AE: Diarrhea, Grade 2 (30 mg (n = 3)): 0 n (%)
- Treatment-related serious AE: Diarrhea, Grade 3 (30 mg (n = 3)): 0 n (%)
- Treatment-related serious AE: Febrile neutropenia (grade 3) (30 mg (n = 3)): 0 n (%)
- Treatment-related serious AE: Hematemesis (grade 3) (30 mg (n = 3)): 0 n (%)
- Treatment-related serious AE: Nausea (grade 3) (30 mg (n = 3)): 0 n (%)
- Treatment-related serious AE: Neutropenia (grade 4) (30 mg (n = 3)): 0 n (%)
- Treatment-related serious AE: Non-cardiac chest pain (grade 3) (30 mg (n = 3)): 0 n (%)
- Treatment-related serious AE: Thrombocytopenia (grade 4) (30 mg (n = 3)): 0 n (%)
- Treatment-related serious AE: Vomiting (30 mg (n = 3)): 0 n (%)
- Treatment-related serious AE: Vomiting, Grade 2 (30 mg (n = 3)): 0 n (%)
- Treatment-related serious AE: Vomiting, Grade 3 (30 mg (n = 3)): 0 n (%)
- Patients with any treatment-emergent AE (60 mg (n = 4)): 4 (100) n (%)
- Patients with any treatment-emergent serious AE (60 mg (n = 4)): 0 n (%)
- Patients with any treatment-related AE (60 mg (n = 4)): 3 (75) n (%)
- Patients with any treatment-related AE, Grade 3 (60 mg (n = 4)): 0 n (%)
- Patients with any treatment-related AE, Grade 4 (60 mg (n = 4)): 0 n (%)
- Patients with any treatment-related AE, Grade 5 (60 mg (n = 4)): 0 n (%)
- Patients with any treatment-related serious AE (60 mg (n = 4)): 0 n (%)
- Treatment-related AE: Abdominal pain (60 mg (n = 4)): 0 n (%)
- Treatment-related AE: Anemia (60 mg (n = 4)): 0 n (%)
- Treatment-related AE: Asthenia (60 mg (n = 4)): 0 n (%)
- Treatment-related AE: Decrease appetite (60 mg (n = 4)): 1 (25) n (%)
- Treatment-related AE: Diarrhea (60 mg (n = 4)): 1 (25) n (%)
- Treatment-related AE: Dysgeusia (60 mg (n = 4)): 0 n (%)
- Treatment-related AE: Fatigue (60 mg (n = 4)): 1 (25) n (%)
- Treatment-related AE: Myalgia (60 mg (n = 4)): 0 n (%)
- Treatment-related AE: Nausea (60 mg (n = 4)): 3 (75) n (%)
- Treatment-related AE: Neutropenia (60 mg (n = 4)): 0 n (%)
- Treatment-related AE: Thrombocytopenia (60 mg (n = 4)): 0 n (%)
- Treatment-related AE: Upper abdominal pain (60 mg (n = 4)): 0 n (%)
- Treatment-related AE: Vomiting (60 mg (n = 4)): 0 n (%)
- Treatment-related serious AE: Abdominal pain (grade 2) (60 mg (n = 4)): 0 n (%)
- Treatment-related serious AE: Dehydration (grade 2) (60 mg (n = 4)): 0 n (%)
- Treatment-related serious AE: Diarrhea (60 mg (n = 4)): 0 n (%)
- Treatment-related serious AE: Diarrhea, Grade 2 (60 mg (n = 4)): 0 n (%)
- Treatment-related serious AE: Diarrhea, Grade 3 (60 mg (n = 4)): 0 n (%)
- Treatment-related serious AE: Febrile neutropenia (grade 3) (60 mg (n = 4)): 0 n (%)
- Treatment-related serious AE: Hematemesis (grade 3) (60 mg (n = 4)): 0 n (%)
- Treatment-related serious AE: Nausea (grade 3) (60 mg (n = 4)): 0 n (%)
- Treatment-related serious AE: Neutropenia (grade 4) (60 mg (n = 4)): 0 n (%)
- Treatment-related serious AE: Non-cardiac chest pain (grade 3) (60 mg (n = 4)): 0 n (%)
- Treatment-related serious AE: Thrombocytopenia (grade 4) (60 mg (n = 4)): 0 n (%)
- Treatment-related serious AE: Vomiting (60 mg (n = 4)): 0 n (%)
- Treatment-related serious AE: Vomiting, Grade 2 (60 mg (n = 4)): 0 n (%)
- Treatment-related serious AE: Vomiting, Grade 3 (60 mg (n = 4)): 0 n (%)
- Patients with any treatment-emergent AE (120 mg (n = 7)): 7 (100) n (%)
- Patients with any treatment-emergent serious AE (120 mg (n = 7)): 3 (43) n (%)
- Patients with any treatment-related AE (120 mg (n = 7)): 7 (100) n (%)
- Patients with any treatment-related AE, Grade 3 (120 mg (n = 7)): 1 (14) n (%)
- Patients with any treatment-related AE, Grade 4 (120 mg (n = 7)): 1 (14) n (%)
- Patients with any treatment-related AE, Grade 5 (120 mg (n = 7)): 0 n (%)
- Patients with any treatment-related serious AE (120 mg (n = 7)): 0 n (%)
- Treatment-related AE: Abdominal pain (120 mg (n = 7)): 0 n (%)
- Treatment-related AE: Anemia (120 mg (n = 7)): 0 n (%)
- Treatment-related AE: Asthenia (120 mg (n = 7)): 0 n (%)
- Treatment-related AE: Decrease appetite (120 mg (n = 7)): 2 (29) n (%)
- Treatment-related AE: Diarrhea (120 mg (n = 7)): 3 (43) n (%)
- Treatment-related AE: Dysgeusia (120 mg (n = 7)): 0 n (%)
- Treatment-related AE: Fatigue (120 mg (n = 7)): 3 (43) n (%)
- Treatment-related AE: Myalgia (120 mg (n = 7)): 1 (14) n (%)
- Treatment-related AE: Nausea (120 mg (n = 7)): 3 (43) n (%)
- Treatment-related AE: Neutropenia (120 mg (n = 7)): 0 n (%)
- Treatment-related AE: Thrombocytopenia (120 mg (n = 7)): 1 (14) n (%)
- Treatment-related AE: Upper abdominal pain (120 mg (n = 7)): 1 (14) n (%)
- Treatment-related AE: Vomiting (120 mg (n = 7)): 2 (29) n (%)
- Treatment-related serious AE: Abdominal pain (grade 2) (120 mg (n = 7)): 0 n (%)
- Treatment-related serious AE: Dehydration (grade 2) (120 mg (n = 7)): 0 n (%)
- Treatment-related serious AE: Diarrhea (120 mg (n = 7)): 0 n (%)
- Treatment-related serious AE: Diarrhea, Grade 2 (120 mg (n = 7)): 0 n (%)
- Treatment-related serious AE: Diarrhea, Grade 3 (120 mg (n = 7)): 0 n (%)
- Treatment-related serious AE: Febrile neutropenia (grade 3) (120 mg (n = 7)): 0 n (%)
- Treatment-related serious AE: Hematemesis (grade 3) (120 mg (n = 7)): 0 n (%)
- Treatment-related serious AE: Nausea (grade 3) (120 mg (n = 7)): 0 n (%)
- Treatment-related serious AE: Neutropenia (grade 4) (120 mg (n = 7)): 0 n (%)
- Treatment-related serious AE: Non-cardiac chest pain (grade 3) (120 mg (n = 7)): 0 n (%)
- Treatment-related serious AE: Thrombocytopenia (grade 4) (120 mg (n = 7)): 0 n (%)
- Treatment-related serious AE: Vomiting (120 mg (n = 7)): 0 n (%)
- Treatment-related serious AE: Vomiting, Grade 2 (120 mg (n = 7)): 0 n (%)
- Treatment-related serious AE: Vomiting, Grade 3 (120 mg (n = 7)): 0 n (%)
- Patients with any treatment-emergent AE (240 mg (n = 8)): 8 (100) n (%)
- Patients with any treatment-emergent serious AE (240 mg (n = 8)): 4 (50) n (%)
- Patients with any treatment-related AE (240 mg (n = 8)): 8 (100) n (%)
- Patients with any treatment-related AE, Grade 3 (240 mg (n = 8)): 3 (38) n (%)
- Patients with any treatment-related AE, Grade 4 (240 mg (n = 8)): 0 n (%)
- Patients with any treatment-related AE, Grade 5 (240 mg (n = 8)): 0 n (%)
- Patients with any treatment-related serious AE (240 mg (n = 8)): 2 (25) n (%)
- Treatment-related AE: Abdominal pain (240 mg (n = 8)): 2 (25) n (%)
- Treatment-related AE: Anemia (240 mg (n = 8)): 1 (13) n (%)
- Treatment-related AE: Asthenia (240 mg (n = 8)): 1 (13) n (%)
- Treatment-related AE: Decrease appetite (240 mg (n = 8)): 2 (25) n (%)
- Treatment-related AE: Diarrhea (240 mg (n = 8)): 6 (75) n (%)
- Treatment-related AE: Dysgeusia (240 mg (n = 8)): 2 (25) n (%)
- Treatment-related AE: Fatigue (240 mg (n = 8)): 4 (50) n (%)
- Treatment-related AE: Myalgia (240 mg (n = 8)): 0 n (%)
- Treatment-related AE: Nausea (240 mg (n = 8)): 5 (63) n (%)
- Treatment-related AE: Neutropenia (240 mg (n = 8)): 0 n (%)
- Treatment-related AE: Thrombocytopenia (240 mg (n = 8)): 1 (13) n (%)
- Treatment-related AE: Upper abdominal pain (240 mg (n = 8)): 1 (13) n (%)
- Treatment-related AE: Vomiting (240 mg (n = 8)): 5 (63) n (%)
- Treatment-related serious AE: Abdominal pain (grade 2) (240 mg (n = 8)): 1 (13) n (%)
- Treatment-related serious AE: Dehydration (grade 2) (240 mg (n = 8)): 0 n (%)
- Treatment-related serious AE: Diarrhea (240 mg (n = 8)): 1 (13) n (%)
- Treatment-related serious AE: Diarrhea, Grade 2 (240 mg (n = 8)): 1 (13) n (%)
- Treatment-related serious AE: Diarrhea, Grade 3 (240 mg (n = 8)): 0 n (%)
- Treatment-related serious AE: Febrile neutropenia (grade 3) (240 mg (n = 8)): 0 n (%)
- Treatment-related serious AE: Hematemesis (grade 3) (240 mg (n = 8)): 0 n (%)
- Treatment-related serious AE: Nausea (grade 3) (240 mg (n = 8)): 1 (13) n (%)
- Treatment-related serious AE: Neutropenia (grade 4) (240 mg (n = 8)): 0 n (%)
- Treatment-related serious AE: Non-cardiac chest pain (grade 3) (240 mg (n = 8)): 1 (13) n (%)
- Treatment-related serious AE: Thrombocytopenia (grade 4) (240 mg (n = 8)): 0 n (%)
- Treatment-related serious AE: Vomiting (240 mg (n = 8)): 1 (13) n (%)
- Treatment-related serious AE: Vomiting, Grade 2 (240 mg (n = 8)): 0 n (%)
- Treatment-related serious AE: Vomiting, Grade 3 (240 mg (n = 8)): 1 (13) n (%)
- Patients with any treatment-emergent AE (300 mg (n = 4)): 4 (100) n (%)
- Patients with any treatment-emergent serious AE (300 mg (n = 4)): 2 (50) n (%)
- Patients with any treatment-related AE (300 mg (n = 4)): 4 (100) n (%)
- Patients with any treatment-related AE, Grade 3 (300 mg (n = 4)): 3 (75) n (%)
- Patients with any treatment-related AE, Grade 4 (300 mg (n = 4)): 2 (50) n (%)
- Patients with any treatment-related AE, Grade 5 (300 mg (n = 4)): 0 n (%)
- Patients with any treatment-related serious AE (300 mg (n = 4)): 2 (50) n (%)
- Treatment-related AE: Abdominal pain (300 mg (n = 4)): 1 (25) n (%)
- Treatment-related AE: Anemia (300 mg (n = 4)): 0 n (%)
- Treatment-related AE: Asthenia (300 mg (n = 4)): 1 (25) n (%)
- Treatment-related AE: Decrease appetite (300 mg (n = 4)): 1 (25) n (%)
- Treatment-related AE: Diarrhea (300 mg (n = 4)): 4 (100) n (%)
- Treatment-related AE: Dysgeusia (300 mg (n = 4)): 1 (25) n (%)
- Treatment-related AE: Fatigue (300 mg (n = 4)): 2 (50) n (%)
- Treatment-related AE: Myalgia (300 mg (n = 4)): 0 n (%)
- Treatment-related AE: Nausea (300 mg (n = 4)): 1 (25) n (%)
- Treatment-related AE: Neutropenia (300 mg (n = 4)): 2 (50) n (%)
- Treatment-related AE: Thrombocytopenia (300 mg (n = 4)): 3 (75) n (%)
